# Biological target: T1, human full-length MKNK1 (Homo sapiens, UniProt Q9BUB5, T385D)
# T1 construct: GST (N); purchased Carna Biosciences 02-145; host or cells: insect cells (baculovirus expression system)
# Experiment: MKNK1 kinase high ATP assay (TR-FRET)
# Assay type: biochemical
# Conditions: TR-FRET, 2 mM ATP (high ATP), 15 min preincubation with enzyme, 30 min reaction at 22° C.; read-out: MKNK1 IC50
# Method in brief: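 Full-length human MKNK1 (T385D) preincubated 15 min at 22 °C with compound in HEPES pH 7.5/MgCl2/DTT buffer; reaction with 2 mM ATP (final) and 0.06 μM biotinylated peptide (final), 30 min at 22 °C.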
# T1 sequence (Q9BUB5 1-424 isoform Q9BUB5-2 T344D): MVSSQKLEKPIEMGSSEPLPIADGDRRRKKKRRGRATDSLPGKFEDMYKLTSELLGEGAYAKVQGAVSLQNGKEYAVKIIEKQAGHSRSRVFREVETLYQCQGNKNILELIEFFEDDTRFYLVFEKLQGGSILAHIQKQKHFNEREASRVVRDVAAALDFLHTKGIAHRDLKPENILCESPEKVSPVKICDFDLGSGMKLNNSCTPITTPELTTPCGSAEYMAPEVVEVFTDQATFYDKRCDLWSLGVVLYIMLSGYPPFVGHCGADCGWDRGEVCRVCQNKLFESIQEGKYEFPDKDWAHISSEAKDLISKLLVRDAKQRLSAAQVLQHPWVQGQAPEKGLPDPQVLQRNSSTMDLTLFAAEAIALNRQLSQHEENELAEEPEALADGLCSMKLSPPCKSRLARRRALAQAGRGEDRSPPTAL
row,IC50,SMILES
1,1.4 nM,"Cc1cc(Nc2ncnc3sc4c(c23)CC[C@H](C(=O)N2CCN(C)[C@H](C)C2)C4)c(=O)n2c1C(=O)NC21CCC(F)(F)CC1 [Example 57, 6′-{[(7S)-7-{[(3R)-3,4-Dimethylpiperazin-1-yl]carbonyl}-5,6,7,8-tetrahydro[1]benzothieno[2,3-d]pyrimidin-4-yl]amino}-4,4-difluoro-8′-methyl-2′H-spiro[cyclohexane-1,3′-imidazo[1,5-a]pyridine]-1′,5′-dione]"
2,0.5 nM,"Cc1cc(Nc2ncnc3sc4c(c23)CC[C@H](C(=O)N2C[C@H]3C[C@@H]2CO3)C4)c(=O)n2c1C(=O)NC21CCC(F)(F)CC1 [Example 58, 4,4-Difluoro-8′-methyl-6′-({(7S)-7-[(1R,4R)-2-oxa-5-azabicyclo[2.2.1]hept-5-ylcarbonyl]-5,6,7,8-tetrahydro[1]benzothieno[2,3-d]pyrimidin-4-yl}amino)-2′H-spiro[cyclohexane-1,3′-imidazo[1,5-a]pyridine]-1′,5′-dione]"
3,37.9 nM,"Cc1cc(Nc2ncnc3sc4c(c23)CC[C@H](C(=O)O)C4)c(=O)n2c1C(=O)N[C@]21CC[C@@](O)(C(F)(F)F)CC1 [Example 59, (7S)-4-{[(cis)-4-Hydroxy-8′-methyl-1′,5′-dioxo-4-(trifluoromethyl)-1′,5′-dihydro-2′H-spiro[cyclohexane-1,3′-imidazo[1,5-a]pyridin]-6′-yl]amino}-5,6,7,8-tetrahydro[1]benzothieno[2,3-d]pyrimidine-7-carboxylic acid]"
4,9.5 nM,"Cc1cc(Nc2ncnc3sc4c(c23)CC[C@H](C(=O)N(C)C)C4)c(=O)n2c1C(=O)N[C@]21CC[C@@](O)(C(F)(F)F)CC1 [Example 60, (7S)-4-{[(cis)-4-Hydroxy-8′-methyl-1′,5′-dioxo-4-(trifluoromethyl)-1′,5′-dihydro-2′H-spiro[cyclohexane-1,3′-imidazo[1,5-a]pyridin]-6′-yl]amino}-N,N-dimethyl-5,6,7,8-tetrahydro[1]benzothieno[2,3-d]pyrimidine-7-carboxamide]"
5,8.4 nM,"Cc1cc(Nc2ncnc3sc4c(c23)CC[C@H](C(=O)N2CCC2)C4)c(=O)n2c1C(=O)N[C@]21CC[C@@](O)(C(F)(F)F)CC1 [Example 61, (cis)-6′-{[(7S)-7-(Azetidin-1-ylcarbonyl)-5,6,7,8-tetrahydro[1]benzothieno[2,3-d]pyrimidin-4-yl]amino}-4-hydroxy-8′-methyl-4-(trifluoromethyl)-2′H-spiro[cyclohexane-1,3′-imidazo[1,5-a]pyridine]-1′,5′-dione]"
6,6.5 nM,Cc1cc(Nc2ncnc3sc4c(c23)CC[C@H](C(=O)N2CC(N(C)C)C2)C4)c(=O)n2c1C(=O)N[C@]21CC[C@@](O)(C(F)(F)F)CC1 [Example 62]
7,1.6 nM,"Cc1cc(Nc2ncnc3sc4c(c23)CC[C@H](C(=O)N2CC[C@H](N(C)C)C2)C4)c(=O)n2c1C(=O)N[C@]21CC[C@@](O)(C(F)(F)F)CC1 [Example 63, (cis)-6′-{[(7S)-7-{[(3S)-3-(Dimethylamino)pyrrolidin-1-yl]carbonyl}-5,6,7,8-tetrahydro[1]benzothieno[2,3-d]pyrimidin-4-yl]amino}-4-hydroxy-8′-methyl-4-(trifluoromethyl)-2′H-spiro[cyclohexane-1,3′-imidazo[1,5-a]pyridine]-1′,5′-dione]"
8,3.8 nM,"Cc1cc(Nc2ncnc3sc4c(c23)CC[C@H](C(=O)N2C[C@H]3C[C@@H]2CO3)C4)c(=O)n2c1C(=O)N[C@]21CC[C@@](O)(C(F)(F)F)CC1 [Example 64, (cis)-4-Hydroxy-8′-methyl-6′-({(7S)-7-[(1R,4R)-2-oxa-5-azabicyclo[2.2.1]hept-5-ylcarbonyl]-5,6,7,8-tetrahydro[1]benzothieno[2,3-d]pyrimidin-4-yl}amino)-4-(trifluoromethyl)-2′H-spiro[cyclohexane-1,3′-imidazo[1,5-a]pyridine]-1′,5′-dione]"
9,3.1 nM,"Cc1cc(Nc2ncnc3sc4c(c23)CC[C@H](C(=O)N(C)C)C4)c(=O)n2c1C(=O)NC21CS(=O)(=O)C1 [Example 66, (7S)—N,N-Dimethyl-4-[(8-methyl-1′,1′-dioxido-1,5-dioxo-1,5-dihydro-2H-spiro[imidazo[1,5-a]pyridine-3,3′-thietan]-6-yl)amino]-5,6,7,8-tetrahydro[1]benzothieno[2,3-d]pyrimidine-7-carboxamide]"
10,2 nM,"Cc1cc(Nc2ncnc3sc4c(c23)CC[C@H](C(=O)N2CCC2)C4)c(=O)n2c1C(=O)NC21CS(=O)(=O)C1 [Example 67, 6-{[(7S)-7-(Azetidin-1-ylcarbonyl)-5,6,7,8-tetrahydro[1]benzothieno[2,3-d]pyrimidin-4-yl]amino}-8-methyl-2H-spiro[imidazo[1,5-a]pyridine-3,3′-thietane]-1,5-dione 1′,1′-dioxide]"
11,2.5 nM,"Cc1cc(Nc2ncnc3sc4c(c23)CC[C@H](C(=O)N2CC(C#N)C2)C4)c(=O)n2c1C(=O)NC21CS(=O)(=O)C1 [Example 68, 1-({(7S)-4-[(8-Methyl-1′,1′-dioxido-1,5-dioxo-1,5-dihydro-2H-spiro[imidazo[1,5-a]pyridine-3,3′-thietan]-6-yl)amino]-5,6,7,8-tetrahydro[1]benzothieno[2,3-d]pyrimidin-7-yl}carbonyl)azetidine-3-carbonitrile]"
12,2 nM,"Cc1cc(Nc2ncnc3sc4c(c23)CC[C@H](C(=O)N2CC(N(C)C)C2)C4)c(=O)n2c1C(=O)NC21CS(=O)(=O)C1 [Example 69, 6-{[(7S)-7-{[3-(Dimethylamino)azetidin-1-yl]carbonyl}-5,6,7,8-tetrahydro[1]benzothieno[2,3-d]pyrimidin-4-yl]amino}-8-methyl-2H-spiro[imidazo[1,5-a]pyridine-3,3′-thietane]-1,5-dione 1′,1′-dioxide]"
13,0.8 nM,"Cc1cc(Nc2ncnc3sc4c(c23)CC[C@H](C(=O)N2CC[C@H](N(C)C)C2)C4)c(=O)n2c1C(=O)NC21CS(=O)(=O)C1 [Example 70, 6-{[(7S)-7-{[(3S)-3-(Dimethylamino)pyrrolidin-1-yl]carbonyl}-5,6,7,8-tetrahydro[1]benzothieno[2,3-d]pyrimidin-4-yl]amino}-8-methyl-2H-spiro[imidazo[1,5-a]pyridine-3,3′-thietane]-1,5-dione 1′,1′-dioxide]"
14,0.8 nM,"Cc1cc(Nc2ncnc3sc4c(c23)CC[C@H](C(=O)N2CCN(C)[C@H](C)C2)C4)c(=O)n2c1C(=O)NC21CS(=O)(=O)C1 [Example 71, 6-{[(7S)-7-{[(3R)-3,4-Dimethylpiperazin-1-yl]carbonyl}-5,6,7,8-tetrahydro[1]benzothieno[2,3-d]pyrimidin-4-yl]amino}-8-methyl-2H-spiro[imidazo[1,5-a]pyridine-3,3′-thietane]-1,5-dione 1′,1′-dioxide]"
15,0.7 nM,"Cc1cc(Nc2ncnc3sc4c(c23)CC[C@H](C(=O)N2C[C@H]3C[C@@H]2CO3)C4)c(=O)n2c1C(=O)NC21CS(=O)(=O)C1 [Example 72, 8-Methyl-6-({(7S)-7-[(1R,4R)-2-oxa-5-azabicyclo[2.2.1]hept-5-ylcarbonyl]-5,6,7,8-tetrahydro[1]benzothieno[2,3-d]pyrimidin-4-yl}amino)-2H-spiro[imidazo[1,5-a]pyridine-3,3′-thietane]-1,5-dione 1′,1′-dioxide]"
16,1.6 nM,"O=C1NC2(CCCCC2)n2c1c(Cl)cc(Nc1ncnc3sc4c(c13)CC[C@H](C(=O)O)C4)c2=O [Example 73, (7S)-4-[(8′-Chloro-1′,5′-dioxo-1′,5′-dihydro-2′H-spiro[cyclohexane-1,3′-imidazo[1,5-a]pyridin]-6′-yl)amino]-5,6,7,8-tetrahydro[1]benzothieno[2,3-d]pyrimidine-7-carboxylic acid]"
17,0.9 nM,"NC(=O)[C@H]1CCc2c(sc3ncnc(Nc4cc(Cl)c5n(c4=O)C4(CCCCC4)NC5=O)c23)C1 [Example 74, (7S)-4-[(8′-Chloro-1′,5′-dioxo-1′,5′-dihydro-2′H-spiro[cyclohexane-1,3′-imidazo[1,5-a]pyridin]-6′-yl)amino]-5,6,7,8-tetrahydro[1]benzothieno[2,3-d]pyrimidine-7-carboxamide]"
18,1.7 nM,"CN(C)C(=O)[C@H]1CCc2c(sc3ncnc(Nc4cc(Cl)c5n(c4=O)C4(CCCCC4)NC5=O)c23)C1 [Example 75, (7S)-4-[(8′-Chloro-1′,5′-dioxo-1′,5′-dihydro-2′H-spiro[cyclohexane-1,3′-imidazo[1,5-a]pyridin]-6′-yl)amino]-N,N-dimethyl-5,6,7,8-tetrahydro[1]benzothieno[2,3-d]pyrimidine-7-carboxamide]"
19,0.9 nM,"O=C1NC2(CCCCC2)n2c1c(Cl)cc(Nc1ncnc3sc4c(c13)CC[C@H](C(=O)N1CCC1)C4)c2=O [Example 76, 6′-{[(7S)-7-(Azetidin-1-ylcarbonyl)-5,6,7,8-tetrahydro[1]benzothieno[2,3-d]pyrimidin-4-yl]amino}-8′-chloro-2′H-spiro[cyclohexane-1,3′-imidazo[1,5-a]pyridine]-1′,5′-dione]"
20,0.8 nM,"N#CC1CN(C(=O)[C@H]2CCc3c(sc4ncnc(Nc5cc(Cl)c6n(c5=O)C5(CCCCC5)NC6=O)c34)C2)C1 [Example 77, 1-({(7S)-4-[(8′-Chloro-1′,5′-dioxo-1′,5′-dihydro-2′H-spiro[cyclohexane-1,3′-imidazo[1,5-a]pyridin]-6′-yl)amino]-5,6,7,8-tetrahydro[1]benzothieno[2,3-d]pyrimidin-7-yl}carbonyl)azetidine-3-carbonitrile]"
21,4.8 nM,"CN(C)[C@H]1CCN(C(=O)[C@H]2CCc3c(sc4ncnc(Nc5cc(Cl)c6n(c5=O)C5(CCCCC5)NC6=O)c34)C2)C1 [Example 78, 8′-Chloro-6′-{[(7S)-7-{[(3S)-3-(dimethylamino)pyrrolidin-1-yl]carbonyl}-5,6,7,8-tetrahydro[1]benzothieno[2,3-d]pyrimidin-4-yl]amino}-2′H-spiro[cyclohexane-1,3′-imidazo[1,5-a]pyridine]-1′,5′-dione]"

# Reference: patent publication US20190388425A1, “SUBSTITUTED IMIDAZOPYRIDINPYRIMIDINES” (Bayer Pharma Aktiengesellschaft, priority 2017, published 2019)
